Data taken from US11597720B2, “Tetrahydronaphthalene and tetrahydroisoquinoline derivatives as estrogen receptor degraders” (Arvinas Operations, Inc., priority 2016, dated 2023).

Assays:
[1] = target: T1, Estrogen receptor-alpha (ERα) (Homo sapiens, UniProt P03372); assay: ERα degradation in T47D cells, western blot; format: cell-based; design: except that T47D cells were utilized instead of the MCF7 cells; endogenous in cells; host or cells: T47D cells; conditions: 7 concentrations 100 nM to 0.1 nM, 10% FBS, 72 hours
T1 sequence (P03372 1-595): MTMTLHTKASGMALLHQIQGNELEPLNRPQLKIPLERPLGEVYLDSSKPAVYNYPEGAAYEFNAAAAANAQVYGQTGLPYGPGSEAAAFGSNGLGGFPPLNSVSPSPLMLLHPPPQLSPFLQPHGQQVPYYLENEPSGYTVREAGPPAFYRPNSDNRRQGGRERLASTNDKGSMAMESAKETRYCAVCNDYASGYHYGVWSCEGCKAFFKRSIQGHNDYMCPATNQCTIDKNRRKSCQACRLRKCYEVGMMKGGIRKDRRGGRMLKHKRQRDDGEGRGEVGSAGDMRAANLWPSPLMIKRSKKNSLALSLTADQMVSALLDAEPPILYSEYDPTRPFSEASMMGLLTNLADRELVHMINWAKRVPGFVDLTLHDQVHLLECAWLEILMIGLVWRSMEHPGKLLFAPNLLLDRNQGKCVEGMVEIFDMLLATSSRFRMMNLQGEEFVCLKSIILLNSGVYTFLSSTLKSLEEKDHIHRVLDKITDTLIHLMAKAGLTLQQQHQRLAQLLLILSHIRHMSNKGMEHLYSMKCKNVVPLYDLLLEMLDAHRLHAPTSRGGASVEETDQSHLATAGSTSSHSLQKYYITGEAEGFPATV
Description: Compounds prepared in this application were also analyzed for their ability to degrade ERα in MCF7 and T47D cells.
Estrogen receptor-alpha (ERα) degradation assay in T47D cells using western blot method. The same protocol that was described above with MCF7 cells was utilized, except that T47D cells were utilized instead of the MCF7 cells.

[2] = target: T1, Estrogen receptor-alpha (ERα); assay: ERα degradation in MCF-7 cells, western blot; format: cell-based; design: assessed for their activity in degrading ERα in MCF-7 cells via western blot; endogenous in cells; host or cells: MCF7 cells; conditions: 10% FBS; for Degradation of ERα in MCF7 cells (immunoblot, FIG. 2): 7 concentrations 100 nM to 0.1 nM, 48 hours
Description: FIG. 2 and FIG. 3 illustrate represent exemplary compounds from the western blot assay.
Estrogen receptor-alpha (ERα) degradation assay in MCF-7 cells using western blot method. The exemplary novel ERα degraders were assessed for their activity in degrading ERα in MCF-7 cells via western blot. The assay was carried out in the presence of 10% […] bovine serum (FBS) or high percentage of human or mouse serum.
MCF7 cells were grown in DMEM/F12 with 10% fetal bovine serum and seeded at 24,000 cells per well in 100 μl into 96-well clear tissue culture plates. The following day, the cells were treated with PROTACs in a 7-point concentration curve with 100 nM being the top concentration and serial dilutions to make the other concentrations (30 nM, 10 nM, 3 nM, 1 nM, and 0.3 nM). At all concentrations, 0.01% DMS is the final concentration in the well. […], washed with 50 μl of cold P1BS, The cells are lysed with 50 μl/well 4° (Cell Lysis Buffer (Catalog #9803; Cell Signaling Technology, Danvers, Mass.) (20 mM Tris-HCL (pH 7.5), 150 mM NaCl, 1 mM Na2EDTA, 1 mM EGTA, 1% Triton, 2.5 mM sodium pyrophosphate, 1 mM B-glycerophosphate, 1 mM sodium vanadate, 1 ug/ml leupeptin). Lysates were clarified at 16,000×g for 10 minutes, and 2 μg of protein was subjected to SDS-PAGE analysis and followed by immunoblotting according to standard protocols. The antibodies used were ERα (Cell Signaling Technologies Catalog #8644), and Tubulin (Sigma Catalog #T9026; St Louis, Mo.). Detection reagents were Clarity Western ECL substrate (Bio-Rad Catalog #170-5060; Hercules, Calif.).
Alternatively, MCF7 cells were grown in DMEM/F12 with 10% fetal bovine serum and seeded at 24,000 cells per well in 500 μl in 24-well clear tissue culture plates. The following day, the cells were treated with PROTACs in a 5-point concentration curve (100 nM, 33 nM, 11 nM, 3.7 nM, and 1.2 nM) in the presence of 0.01% DMSO, After 72 hours, the wells are aspirated and washed with 500 μl of PBS. The cells are lysed with 100 μl/well 4° C. […]

SMILES | Degradation of ERα in T47D cells (immunoblot, FIG. 4) [1] | Degradation of ERα in MCF7 cells (immunoblot, FIG. 2) [2] | Degradation of ERα in MCF7 cells (immunoblot, FIG. 3) ([2]; 5 concentrations 100 nM to 1.2 nM, 72 hours)
Cc1ncsc1-c1ccc(CNC(=O)[C@@H]2C[C@@H](O)CN2C(=O)[C@@H](NC(=O)COCCN2CCN(CCOc3ccc([C@@H]4c5ccc(O)cc5CC[C@@H]4c4ccccc4)cc3)CC2)C(C)(C)C)cc1 [Example 1, (2S,4R)-4-hydroxy-1-[(2S)-2-(2-{2-[4-(2-{4-[(1R,2S)-6-hydroxy-2-phenyl-1,2,3,4-tetrahydronaphthalen-1-yl]phenoxy}ethyl)piperazin-1-yl]ethoxy}acetamido)-3,3-dimethylbutanoyl]-N-{[4-(4-methyl-1,3-thiazol-5-yl)phenyl]methyl}pyrrolidine-2-carboxamide] | Degradation of ERα | Degradation of ERα | –
O=C1CCC(N2Cc3cc(N4CCN(CCCCCOc5ccc([C@@H]6c7ccc(O)cc7CC[C@@H]6c6ccccc6)cc5)CC4)ccc3C2=O)C(=O)N1 (stereo partly drawn) [Example 62, 3-{5-[4-(5-{4-[(1R,2S)-6-hydroxy-2-phenyl-1,2,3,4-tetrahydronaphthalen-1-yl]phenoxy}pentyl)piperazin-1-yl]-1-oxo-2,3-dihydro-1H-isoindol-2-yl}piperidine-2,6-dione] | Degradation of ERα | Degradation of ERα | –
O=C1CCC(N2Cc3cc(N4CCN(CC5CCN(c6ccc([C@@H]7c8ccc(O)cc8CC[C@@H]7c7ccccc7)cc6)CC5)CC4)ccc3C2=O)C(=O)N1 (stereo partly drawn) [Example 341, 3-[5-[4-[[1-[4-[(1R, 2S)-6-hydroxy-2-phenyl-tetralin-1-yl]phenyl]-4-piperidyl]methyl]piperazin-1-yl]-1-oxo-isoindolin-2-yl]piperidine-2,6-dione] | – | – | Degradation of ERα
